From the METLIN SMRT retention time set (Domingo-Almenara et al. 2019)

Assay: gradient 5% acetonitrile 3 min, to 50% in 2 min, to 85% in 15 min, held 3 min, 100 µL/min
Conditions: column: Zorbax Extend-C18 2.1 x 50 mm; eluents: water / acetonitrile, 0.1% formic acid
How it was run: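 Pure standards were run in mixtures of ~100 molecules by HPLC coupled to a quadrupole time-of-flight mass spectrometer. The column was a Zorbax Extend-C18 (2.1 × 50 mm, 1.8 μm) at 100 μL/min, with water and acetonitrile each containing 0.1% formic acid, in positive and negative ionization mode. Dead and dwell volumes were 40 μL and 900 μL. Retention time was taken from computationally picked adduct peaks, each manually inspected, with data collected over 3 months.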

SMILES | RP-LC retention time [s]
Cc1cc(C)cc(NC(=O)N(C)CCc2noc(COc3ccccc3)n2)c1 | 949
O=C(NCC1CCCO1)c1ccc2ncnc(N3CCCCC3)c2c1 (stereo not given) | 594
Cc1cc(C)c(C)c(S(=O)(=O)N2CCCC2c2nc(-c3ccccc3)no2)c1C (stereo not given) | 1330
Cc1cc(N(C)C)nc(N2CCN(C(=O)c3ccc(-c4ccccc4)cc3)CC2)n1 | 758
Cc1oc(-c2ccccc2)nc1Cc1noc(-c2ccccc2F)n1 | 675
Fc1ccc(CNc2ccc(-c3nc(-c4ccc(F)cc4)no3)cn2)cc1 | 1220
CCOc1ccc(CCNC(=O)c2nc(CCS(=O)(=O)c3ccc(F)cc3)no2)cc1OCC | 952
CCOc1ccc(N2CC(c3nnc(NC(=O)Cc4ccc(Cl)cc4)o3)CC2=O)cc1 (stereo not given) | 796
O=C(NCCc1csc(-c2ccccc2)n1)C1CCN(C(=O)Cc2ccc(Cl)cc2)CC1 | 866
O=C(NCc1ccccn1)c1cc(-c2cccnc2)nc2ccc(Br)cc12 | 898
COc1cccc(NS(=O)(=O)c2cc(-c3[nH]ncc3C(=O)N3CCCC3)oc2C)c1 | 693
CC(C)NC(=O)c1ccc2c(c1)CCN2C(=O)C1CCC1 | 764
O=C(Nc1cccc(Cl)c1)C1CCCN(c2nc3ccsc3c(=O)n2Cc2ccc(F)cc2)C1 (stereo not given) | 1110
CCc1c(C)nc2nc(-c3ccccc3)nn2c1Nc1cccc(OC)c1 | 989
CCCCCCC(C)OC(=O)c1ccccc1C(=O)O (stereo not given) | 1130
CC1=C(c2ccc(F)cc2)S(=O)(=O)N=C1N1CCCN(C(=O)c2ccccc2)CC1 | 802
COC[C@@H]1CN(Cc2c(C)n[nH]c2C)C[C@H]1c1ccccn1 | 558
COc1ccc(-c2csc(NC(=O)CS(=O)(=O)c3ccc(Cl)cc3)n2)cc1 | 1010
CC(C(=O)Nc1cccc(F)c1)C1CCN(C(=O)Nc2ccc(Cl)cc2)CC1 (stereo not given) | 951
COCCn1c(CCCC(=O)NCc2ccc(C(C)C)cc2)nc2cccnc21 | 741
C[C@H]1CNCCc2ccc(Cl)cc21 | 652
COc1ccc(N2CCN(c3cc(SCC(=O)NC4CCCCC4)ncn3)CC2)cc1 | 875
Cn1cnc(S(=O)(=O)N2CCC3(CC2)N(c2ccccc2)C(=O)CS3=O)c1 (stereo not given) | 593

SMILES | RP-LC retention time [s]
CCN1C(=O)COc2cc(-c3noc(C(=O)NC4CCCCCC4)n3)ccc21 | 1050
C#CCOCC1CN(c2ccccc2)C(=O)O1 (stereo not given) | 833
Cc1ccc(-c2ncc(C(=O)Nc3cc(C)ccc3F)c(-c3ccncc3)n2)cc1 | 995
COc1ccc(C(O)CN2CCN(c3ccc(C)cc3)CC2)cc1 (stereo not given) | 663
Cc1ccc(CNC(=O)C2CCN(c3cncnc3N3CCOCC3)CC2)cc1C | 649
CCOC(=O)C1CCN(c2nnc(-c3nc(C4CC4)no3)c3ccccc23)CC1 | 953
O=C(c1cc(C2CC2)[nH]n1)N1CC(n2cc(COCc3ccccc3)nn2)C1 | 730
CCc1cc(N2CCN(C(=O)c3cc(OC)c(OC)c(OC)c3)CC2)nc2nncn12 | 593
CCOC(=O)CNC(=O)Nc1ccc2c(c1)oc(=O)n2CC | 659
O=C(Cn1ccc2sccc2c1=O)Nc1cccc(C(F)(F)F)c1 | 834
CCOc1ccccc1NS(=O)(=O)c1ccc2c(c1)C(=O)N(C)c1ncccc1O2 | 941
CCN(CC)C(=O)C1CCCN(S(=O)(=O)c2ccc(OC)c(C)c2)C1 (stereo not given) | 881
O=C(Nc1cnn(-c2ncc(N3CCCCC3)cn2)c1)C1CCCC1 | 807
CCOc1cccc(CNC(=O)c2ccc3c(=O)n(Cc4ccccc4)c(N(CC)CC)nc3c2)c1 | 1170
CCCn1c(=O)c(C)nc2cc(-c3noc(-c4sccc4C)n3)ccc21 | 1240
O=C(Nc1ccccc1C(F)(F)F)NC1CCN(c2ccc(F)cc2)C1=O (stereo not given) | 850
Cc1ccsc1C(=O)Nc1nnc(SCc2nnc(-c3ccc4c(c3)OCO4)o2)s1 | 884
CC(C)NC(=O)NC1CCN(c2ccc(F)cc2)C1=O (stereo not given) | 659
CNC(=O)[C@@H]1C[C@H](Oc2ccccc2)CN1C(=O)c1n[nH]c(=O)c2ccccc12 | 650
O=C1NCCc2ccc(NC(=O)C3(c4ccc(F)cc4)CC3)cc21 | 706
COc1ccc(OCC(=O)Nc2nc(-c3ccc(Cl)cc3)cs2)cc1 | 1140
Cc1ccc(C(=O)N2CCCC(c3nnc(-c4ccccc4)o3)C2)s1 (stereo not given) | 861
Cc1ccc(NC(=O)C2CCN(S(=O)(=O)c3cc(C(=O)N4CCCC4)cs3)CC2)cc1 | 830

SMILES | RP-LC retention time [s]
CC1CCc2c(N3CCC(O)CC3)c(F)cc3c(=O)c(C(=O)O)cn1c23 (stereo not given) | 709
CC1CC(=O)c2cnn(-c3nc4ccccc4[nH]3)c2C1 (stereo not given) | 761
CCN(CC)S(=O)(=O)c1cc(-c2nnc(-c3ccccc3)o2)ccc1OC | 977
Cc1ccccc1C(=O)Nc1nnc(SCc2nnc(-c3ccccc3C)o2)s1 | 948
Cc1cccc(NC(=O)NCCc2cn(CC(C)C)c3ncccc23)c1C | 839
O=C(Nc1nccs1)C1CCN(S(=O)(=O)C2CC2)CC1 | 632
CCCN(C)c1nccn2c(=O)n(CC(=O)Nc3cc(C)ccc3C)nc12 | 696
O=C(NCc1cc(F)ccc1F)C1CN(S(=O)(=O)c2cccnc2)CC12CCCCC2 (stereo not given) | 919
Cc1cccc(OCc2nc(CCN(C)C(=O)NC3CCCCC3)no2)c1 | 938
O=C1COc2ccc(S(=O)(=O)N3CCC(C(=O)Nc4ccc5c(c4)OCO5)CC3)cc2N1 | 715
CCC(=O)N1CCc2cc(N3CC(C(=O)NCc4ccc(F)cc4F)CC3=O)ccc21 (stereo not given) | 755
CCCNC(=O)N1CCCN(Cc2ccc3c(c2)OCO3)c2ccccc21 | 924
COc1cccc(CNC(=O)C2(C)CCCN(C(=O)Nc3cccc(Cl)c3C)C2)c1 (stereo not given) | 982
CN(C)C(=O)c1csc(S(=O)(=O)N2CCC(C(=O)NC3CC3)CC2)c1 | 626
COc1ccc(C(=O)N2CCC(c3cc(N)on3)CC2)cc1OC | 615
COc1cc(OC)c(NC(=O)NCCCn2c(C(F)(F)F)nc3cccnc32)cc1Cl | 836
COc1ccc(C)cc1NC(=O)NCCn1c(C(F)(F)F)nc2cccnc21 | 807
CN1C(=O)NC2(CCN(S(=O)(=O)c3cccs3)CC2)C1=O | 640
CC(C)n1c(=O)sc2cc(S(=O)(=O)N3CCC(C(=O)Nc4cccc(F)c4)CC3)ccc21 | 1010
CCn1c(=O)sc2cc(S(=O)(=O)N3CCC(C(=O)NCc4cccc(C)c4)CC3)ccc21 | 932
O=C(Nc1ccc(N2CCN(c3ccccc3)C2=O)nc1)c1cccnc1 | 689
Cc1ccc(OCC(O)Cn2c(C3CC3)nc3ccccc32)cc1 (stereo not given) | 697
COc1ccc2[nH]cc(CCNC(=O)c3cc4n(n3)CCCN(Cc3ccc(F)cc3)C4=O)c2c1 | 852

SMILES | RP-LC retention time [s]
CCCN(C(=O)CC(=O)OCC)c1nc(-c2ccc(C)cc2)cs1 | 1250
Cc1cc(=O)n(CC(=O)Nc2cc(F)ccc2C)c(N2CCCCC2)n1 | 699
Cc1cc(C)c(S(=O)(=O)Nc2ccc(-c3ccc4nnc(C)n4n3)cc2)cc1C | 741
CCNC(=O)N1CC(C(=O)N(C)C)C2(CCOCC2)C1 (stereo not given) | 520
CCOc1ccc(NC(=O)CN2C(=O)CCc3cc(Br)ccc32)cc1 | 926
Cc1nc(C2CCCN2Cc2ccc(F)cc2F)n[nH]1 (stereo not given) | 560
CN1C(=O)CCCCC1C(=O)N1CCOCC1 (stereo not given) | 556
Cc1noc(C2CCCCN2Cc2nc(-c3ccccn3)no2)n1 (stereo not given) | 639
COC(=O)c1c(C)[nH]c(C(=O)N2CCC(CC(=O)NCc3ccccc3F)CC2)c1C | 743
OCc1cc2c(cn1)[nH]c1ccccc12 | 637
N#Cc1ccc(C(=O)NC2CCN(c3ccc(F)cc3)C2=O)cc1 (stereo not given) | 754
O=C(NCCCn1nc(-c2ccc(Cl)cc2)ccc1=O)C1CCCC1 | 798
O=C(Nc1ccccc1)N1CCC(n2cnc3c(Cl)cccc3c2=O)CC1 | 784
CCCN1CCC(c2cccc(S(C)(=O)=O)c2)CC1 | 600
COC(=O)c1ccccc1Nc1c(-c2ccc(F)cc2)nc2cnc(Br)cn12 | 1120
CSc1nnc(-c2nn(C)c3c2CN(C(=O)c2ccc(Cl)cc2)CC3)n1C | 736
Cc1nnc2sc(SCc3ccc(C(F)(F)F)cc3)nn2c1=O | 801
CCCCC(C(=O)O)C(C)CC(=O)Nc1nc(-c2ccccc2)cs1 (stereo not given) | 982
O=C(Cn1c(=O)cc(C(=O)N2CCCC2)c2ccccc21)Nc1cccc(Br)c1 | 780
Cc1c(S(=O)(=O)Nc2cccc(-c3ccc4ccccc4n3)c2)cnn1C(F)F | 947
O=c1c(=O)n(-c2ccccc2)ccn1Cc1nc(-c2ccccc2)no1 | 777
